Here are results for 18 compounds from US10212936B2, “Molecules having pesticidal utility, and intermediates, compositions, and processes, related thereto” (priority 2014, dated 2019).

Common to all, as to type: in vivo
Data set [1] has as its system Beet Armyworm (Spodoptera exigua, LAPHEG). The experiment in a line: Bioassay on Beet Armyworm (BAW), 128-well diet tray assay. To be noted: 168 h, 50 μg/cm^2 on artificial diet, second instar larvae, five to seven days, 25° C., read-out: BAW % Control (or Mortality) rating. As for the experimental part: (§1) Example A: Bioassays on Beet Armyworm (Spodoptera exigua, LAPHEG) (“BAW”), Corn Earworm (Helicoverpa zea, HELIZE) (“CEW”), and Cabbage Looper (Trichoplusia ni, TRIPNI) (“CL”)
(§2) Certain molecules disclosed in this document were tested against BAW, CEW, and CL using procedures described in the following examples. In the reporting of the results, the “BAW, CEW, & CL Rating Table” was used (See Table Section).
Bioassays on BAW were conducted using a 128-well diet tray assay. one to five second instar BAW larvae were placed in each well (3 mL) of the diet tray that had been previously filled with 1 mL of artificial diet to which 50 μg/cm^2 of the test molecule (dissolved in 50 μL of 90:10 acetone-water mixture) had been applied (to each of eight wells) and then allowed to dry. Trays were covered with a clear self-adhesive cover and held at 25° C., 14:10 light-dark for five to seven days. Percent mortality was recorded for the larvae in each well; activity in the eight wells was then averaged. The results are indicated in the table entitled “Table ABC: Biological Results” (See Table Section).

In data set [2] the test system is Cabbage Looper (Trichoplusia ni, TRIPNI). Nature of the data set: Bioassay on Cabbage Looper (CL), 128-well diet tray assay. The following applies: 168 h, 50 μg/cm^2 on artificial diet, second instar larvae, five to seven days, 25° C., read-out: CL % Control (or Mortality) rating. As for the experimental part:
as §1, §2
Bioassays on CL were conducted using a 128-well diet tray assay. one to five second instar CL larvae were placed in each well (3 mL) of the diet tray that had been previously filled with 1 mL of artificial diet to which 50 μg/cm^2 of the test molecule (dissolved in 50 μL of 90:10 acetone-water mixture) had been applied (to each of eight wells) and then allowed to dry. Trays were covered with a clear self-adhesive cover and held at 25° C., 14:10 light-dark for five to seven days. Percent mortality was recorded for the larvae in each well; activity in the eight wells was then averaged. The results are indicated in the table entitled “Table ABC: Biological Results” (See Table Section).

For data set [3], the system named is Yellow Fever Mosquito (Aedes aegypti, AEDSAE). Nature of the data set: Bioassay on Yellow Fever Mosquito (YFM) larvae, 96-well plate. The following applies: about 1 day-old larvae, 4000 ppm DMSO master plate diluted, graded after 3 days. As for the experimental part: Example C: Bioassays on Yellow Fever Mosquito (Aedes aegypti, AEDSAE) (“YFM”)
Certain molecules disclosed in this document were tested against YFM using procedures described in the following paragraph. In the reporting of the results, the “YFM Rating Table” was used (See Table Section).
Master plates containing 400 μg of a molecule dissolved in 100 μL of dimethyl sulfoxide (DMSO) (equivalent to a 4000 ppm solution) are used. A master plate of assembled molecules contains 15 μL per well. To this plate, 135 μL of a 90:10 water:acetone mixture is added to each well. A robot (Biomek® NXP Laboratory Automation Workstation) is programmed to dispense 15 μL aspirations from the master plate into an empty 96-well shallow plate (“daughter” plate). There are 6 reps (“daughter” plates) created per master. The created daughter plates are then immediately infested with YFM larvae.
The day before plates are to be treated, mosquito eggs are placed in Millipore water containing liver powder to begin hatching (4 g. into 400 mL). After the daughter plates are created using the robot, they are infested with 220 μL of the liver powder/larval mosquito mixture (about 1 day-old larvae). After plates are infested with mosquito larvae, a non-evaporative lid is used to cover the plate to reduce drying. Plates are held at room temperature for 3 days prior to grading. After 3 days, each well is observed and scored based on mortality. The results are indicated in the table entitled “Table ABC: Biological Results” (See Table Section).

In the case of `CCOC(=O)c1c(C)csc1NC(=O)Nc1ccc(-c2ncn(-c3ccc(OC(F)(F)F)cc3)n2)cc1` [F1, ethyl 4-methyl-2-(3-(4-(1-(4-(trifluoromethoxy)phenyl)-1H-1,2,4-triazol-3-yl)phenyl)ureido)thiophene-3-carboxylate], the mortality at 50 µg/cm2 in data set [1] and in data set [2] was 0% throughout. For the same compound, the “YFM % Control (or Mortality) rating” value in data set [3] is reported as “D (No activity noticed in this bioassay)”.
For `CCOC(=O)c1cnn(-c2ccc(Cl)cc2C)c1NC(=O)Nc1ccc(-c2ncn(-c3ccc(OC(F)(F)F)cc3)n2)cc1` [F2, Ethyl 1-(4-chloro-2-methylphenyl)-5-(3-(4-(1-(4-(trifluoromethoxy)phenyl)-1H-1,2,4-triazol-3-yl)phenyl)ureido)-1H-pyrazole-4-carboxylate], the mortality at 50 µg/cm2 in data set [1] and in data set [2] was 0% in each case. Besides, the “YFM % Control (or Mortality) rating” value in data set [3] is “D (No activity noticed in this bioassay)”.
As for `CC(C)CC(C)c1sccc1NC(=O)Nc1ccc(-c2ncn(-c3ccc(OC(F)(F)F)cc3)n2)cc1` (stereo not drawn) [F8, 1-(2-(4-Methylpentan-2-yl)thiophen-3-yl)-3-(4-(1-(4-(trifluoromethoxy)phenyl)-1H-1,2,4-triazol-3-yl)phenyl)urea], the mortality at 50 µg/cm2 in data set [1] is 0%; in data set [2], 50 to 100%. Further, in data set [3], the “YFM % Control (or Mortality) rating” value is “D (No activity noticed in this bioassay)”.
Regarding `O=C(Nc1ccc(-c2ncn(-c3ccc(OC(F)(F)F)cc3)n2)cc1)Nc1ccnn1-c1ccccc1` [F10, 1-(1-Phenyl-1H-pyrazol-5-yl)-3-(4-(1-(4-(trifluoromethoxy)phenyl)-1H-1,2,4-triazol-3-yl)phenyl)urea], the mortality at 50 µg/cm2 in data set [1] and in data set [2] was 50 to 100% throughout. The “YFM % Control (or Mortality) rating” value in data set [3] is recorded as “D (No activity noticed in this bioassay)”.
Regarding `O=C(Nc1ccc(-c2ncn(-c3ccc(OC(F)(F)F)cc3)n2)cc1)Nc1nccn1-c1cc(Cl)cc(Cl)c1` [F28, 1-(1-(3,5-Dichlorophenyl)-1H-imidazol-2-yl)-3-(4-(1-(4-(trifluoromethoxy)phenyl)-1H-1,2,4-triazol-3-yl)phenyl)urea], the mortality at 50 µg/cm2 in data set [1] is 50 to 100%; in data set [2] it was 0%.
Consider `O=C(Nc1ccc(-c2ncn(-c3ccc(OC(F)(F)F)cc3)n2)cc1)Nc1nccn1-c1cccnc1` [F32, 1-(1-(Pyridin-3-yl)-1H-imidazol-2-yl)-3-(4-(1-(4-(trifluoromethoxy)phenyl)-1H-1,2,4-triazol-3-yl)phenyl)urea], for which the mortality at 50 µg/cm2 in data set [1] was in the range of 50 to 100%; in data set [2], 0 to 50%.
`COc1ccc(-c2ncsc2NC(=O)Nc2ccc(-c3ncn(-c4ccc(OC(F)(F)F)cc4)n3)cc2)c(C)c1` [F46, 1-(4-(4-Methoxy-2-methylphenyl)thiazol-5-yl)-3-(4-(1-(4-(trifluoromethoxy)phenyl)-1H-1,2,4-triazol-3-yl)phenyl)urea]: the mortality at 50 µg/cm2 in data set [1] and in data set [2] was 50 to 100% throughout. For the same compound, the “YFM % Control (or Mortality) rating” value in data set [3] is given as “A (80-100)”.
As for `Cc1ccc(C)c(-c2ncsc2NC(=O)Nc2ccc(-c3ncn(-c4ccc(OC(F)(F)F)cc4)n3)cc2)c1` [F47, 1-(4-(2,5-Dimethylphenyl)thiazol-5-yl)-3-(4-(1-(4-(trifluoromethoxy)phenyl)-1H-1,2,4-triazol-3-yl)phenyl)urea], the mortality at 50 µg/cm2 in data set [1] and in data set [2] was 50 to 100% each time. Further, in data set [3], the “YFM % Control (or Mortality) rating” value is listed as “A (80-100)”.
For the compound `O=C(Nc1ccc(-c2ncn(-c3ccc(OC(F)(F)F)cc3)n2)cc1)Nc1scnc1-c1c(Cl)cccc1Cl` [F48, 1-(4-(2,6-Dichlorophenyl)thiazol-5-yl)-3-(4-(1-(4-(trifluoromethoxy)phenyl)-1H-1,2,4-triazol-3-yl)phenyl)urea], in data set [3], the “YFM % Control (or Mortality) rating” value was “A (80-100)”.
Regarding `CCc1ccccc1-c1ncsc1NC(=O)Nc1ccc(-c2ncn(-c3ccc(OC(F)(F)F)cc3)n2)cc1` [F49, 1-(4-(2-ethylphenyl)thiazol-5-yl)-3-(4-(1-(4-(trifluoromethoxy)phenyl)-1H-1,2,4-triazol-3-yl)phenyl)urea], the mortality at 50 µg/cm2 in data set [1] and in data set [2] was 50 to 100% throughout.
In the case of `O=C(NCCc1ccc(-c2ncn(-c3ccc(OC(F)(F)F)cc3)n2)cc1)Nc1nccs1` [F50, 1-(thiazol-2-yl)-3-(4-(1-(4-(trifluoromethoxy)phenyl)-1H-1,2,4-triazol-3-yl)phenethyl)urea], the mortality at 50 µg/cm2 in data set [1] and in data set [2] was 0% throughout. Besides, in data set [3], the “YFM % Control (or Mortality) rating” value is listed as “D (No activity noticed in this bioassay)”.
Take `O=C(NCCc1ccc(-c2ncn(-c3ccc(OC(F)(F)F)cc3)n2)cc1)Nc1ccnn1-c1ccccc1` [F51, 1-(1-phenyl-1H-pyrazol-5-yl)-3-(4-(1-(4-(trifluoromethoxy)phenyl)-1H-1,2,4-triazol-3-yl)phenethyl)urea]: the mortality at 50 µg/cm2 in data set [1] and in data set [2] was 0% each time.
As to `Cc1cc(C)c(C2=C(NC(=O)NCCc3ccc(-c4ncn(-c5ccc(OC(F)(F)F)cc5)n4)cc3)OCC2=O)c(C)c1` [F53, 1-(3-mesityl-4-oxo-4,5-dihydrofuran-2-yl)-3-(4-(1-(4-(trifluoromethoxy)phenyl)-1H-1,2,4-triazol-3-yl)phenethyl)urea], the values for the mortality at 50 µg/cm2 in data set [1] and in data set [2] were 0 to 50% and 50 to 100%, respectively. Besides, the “YFM % Control (or Mortality) rating” value in data set [3] is “A (80-100)”.
Regarding `O=C(NCCc1ccc(-c2ncn(-c3ccc(OC(F)(F)F)cc3)n2)cc1)NC1=C(c2c(Cl)cccc2Cl)C(=O)CO1` [F54, 1-(3-(2,6-Dichlorophenyl)-4-oxo-4,5-dihydrofuran-2-yl)-3-(4-(1-(4-(trifluoromethoxy)phenyl)-1H-1,2,4-triazol-3-yl)phenethyl)urea], the mortality at 50 µg/cm2 in data set [1] and in data set [2] was 0% in each case. The “YFM % Control (or Mortality) rating” value in data set [3] is recorded as “A (80-100)”.
As to `Cc1cccc(C)c1C1=C(NC(=O)NCCc2ccc(-c3ncn(-c4ccc(OC(F)(F)F)cc4)n3)cc2)OCC1=O` [F55, 1-(3-(2,6-Dimethylphenyl)-4-oxo-4,5-dihydrofuran-2-yl)-3-(4-(1-(4-(trifluoromethoxy)phenyl)-1H-1,2,4-triazol-3-yl)phenethyl)urea], the results for the mortality at 50 µg/cm2 in data set [1] and in data set [2] were 50 to 100% and 0%, respectively. Also, in data set [3], the “YFM % Control (or Mortality) rating” value is “A (80-100)”.
As to `Cc1ccc(C)c(C2=C(NC(=O)NCCc3ccc(-c4ncn(-c5ccc(OC(F)(F)F)cc5)n4)cc3)OCC2=O)c1` [F56, 1-(3-(2,5-Dimethylphenyl)-4-oxo-4,5-dihydrofuran-2-yl)-3-(4-(1-(4-(trifluoromethoxy)phenyl)-1H-1,2,4-triazol-3-yl)phenethyl)urea], the mortality at 50 µg/cm2 in data set [1] and in data set [2] was 50 to 100% throughout. In data set [3], the “YFM % Control (or Mortality) rating” value is recorded as “A (80-100)”.
Regarding `Cc1ccc(C)c(-c2c(NC(=O)NCCc3ccc(-c4ncn(-c5ccc(OC(F)(F)F)cc5)n4)cc3)on(C)c2=O)c1` [F57, 1-(4-(2,5-Dimethylphenyl)-2-methyl-3-oxo-2,3-dihydroisoxazol-5-yl)-3-(4-(1-(4-(trifluoromethoxy)phenyl)-1H-1,2,4-triazol-3-yl)phenethyl)urea], the mortality at 50 µg/cm2 in data set [1] and in data set [2] was 50 to 100% each time. Further, the “YFM % Control (or Mortality) rating” value in data set [3] is “A (80-100)”.
With `CC(C)c1ccccc1-c1c(NC(=O)NCCc2ccc(-c3ncn(-c4ccc(OC(F)(F)F)cc4)n3)cc2)on(C)c1=O` [F58, 1-(4-(2-Isopropylphenyl)-2-methyl-3-oxo-2,3-dihydroisoxazol-5-yl)-3-(4-(1-(4-(trifluoromethoxy)phenyl)-1H-1,2,4-triazol-3-yl)phenethyl)urea], the mortality at 50 µg/cm2 in data set [1] and in data set [2] was 50 to 100% each time. Besides, the “YFM % Control (or Mortality) rating” value in data set [3] is given as “A (80-100)”.

For orientation: mortality means the percentage killed.
